In the supplement of paper PMC10627819:
Converted amounts (≈) assume the structure as drawn.

Legend:
S. pneumoniae D39V [1] = tested on: S. pneumoniae D39V
S. pneumoniae D39V [2] = assay: fitness (endpoint OD595 vs no drug) (fraction); higher = more growth
Outline: (§1)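 At 37 °C, bacteria in TSB, LB Lennox or CY were grown in 384-well plates from a starting OD595 of 0.01. OD595 was measured every 30 min for 14 h, with the first reading used as background. Fitness is the optical density at the switch to stationary phase as a fraction of the robust mean of no-drug control wells, capped at 1.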

B. subtilis 168 [3] = assay: as above
Outline: as §1

S. aureus DSM 20231 [4] = assay: as above
Outline: as §1

S. aureus Newman [5] = assay: as above
Outline: as §1

B. subtilis 168 [6] = assay: Bliss interaction score (quartile over a dose matrix) (fitness difference); higher = more antagonism (negative = synergy)
Outline: (§2)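 Quartiles summarise the Bliss score over technical, biological and donor/recipient replicates, where the score is observed minus expected fitness under a product model. Expected fitness uses single-drug values inferred from combination data. Fitness is OD595 at entry into stationary phase over the plate's robust no-drug mean, capped at 1.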

S. aureus DSM 20231 [7] = assay: as above
Outline: as §2

S. aureus Newman [8] = assay: as above
Outline: as §2

S. pneumoniae D39V [9] = assay: as above
Outline: as §2
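For Bliss interaction score (quartile over a dose matrix) in this document: first quartile when negative (synergy) and third quartile when positive (antagonism).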

C/C(=C\C(=O)OCCCCCCCCC(=O)O)C[C@@H]1OC[C@H](C[C@@H]2O[C@H]2[C@@H](C)[C@H](C)O)[C@@H](O)[C@H]1O [Pseudomonic acid]
Conditions	MIC [µg/mL]
S. pneumoniae D39V [1]	0.25 (≈ 0.499 µM)

S. pneumoniae D39V [2]
Conditions	fitness
0.03 µg/mL	0.971
0.06 µg/mL	0.822
0.12 µg/mL	0.443

O=C(O[C@@H]1Cc2c(O)cc(O)cc2O[C@@H]1c1cc(O)c(O)c(O)c1)c1cc(O)c(O)c(O)c1 [EGCG] + Cc1ncc([N+](=O)[O-])n1CCO [Metronidazole]
fitness
Conditions	partner 0.625 µg/mL	partner 1.073 µg/mL	partner 1.25 µg/mL	partner 2.145 µg/mL	partner 2.5 µg/mL	partner 4.29 µg/mL	partner 5 µg/mL
B. subtilis 168 [3], first compound 6.25 µg/mL	0.969	–	0.944	–	0.928	–	–
S. aureus DSM 20231 [4], first compound 12.5 µg/mL	0.853	–	0.787	–	0.795	–	–
S. aureus DSM 20231 [4], first compound 25 µg/mL	0.792	–	0.807	–	0.838	–	–
S. aureus DSM 20231 [4], first compound 50 µg/mL	0.779	–	0.753	–	0.841	–	–
S. aureus Newman [5], first compound 12.5 µg/mL	0.833	–	0.847	–	0.809	–	–
S. aureus Newman [5], first compound 25 µg/mL	0.833	–	0.807	–	0.785	–	–
S. aureus Newman [5], first compound 50 µg/mL	0.769	–	0.747	–	0.736	–	–
S. pneumoniae D39V [2], first compound 12.5 µg/mL	–	0.888	0.956	0.493	0.982	0.825	0.976
S. pneumoniae D39V [2], first compound 25 µg/mL	–	0.839	0.979	–	≥ 1	–	0.984
S. pneumoniae D39V [2], first compound 50 µg/mL	–	0.803	0.813	0.391	0.949	0.602	0.907

fitness, S. aureus Newman [5], one replicate
Conditions	first compound 12.5 µg/mL	first compound 25 µg/mL	first compound 50 µg/mL
partner 0.781 µg/mL	0.781	0.807	0.943
partner 1.562 µg/mL	0.8	0.833	≥ 1
partner 3.124 µg/mL	0.782	0.81	0.963

Conditions	Bliss interaction score
B. subtilis 168 [6]	-0.039
S. aureus DSM 20231 [7]	-0.112
S. aureus Newman [8]	0.0648
S. pneumoniae D39V [9]	-0.0826

CCC[C@@H]1C[C@@H](C(=O)N[C@@H]([C@H]2O[C@H](SC)[C@H](O)[C@@H](O)[C@H]2O)[C@H](C)Cl)N(C)C1 [Clindamycin] + C[C@@H]1O[C@@H]1P(=O)(O)O [Fosfomycin]
fitness, B. subtilis 168 [3], one replicate
Conditions	first compound 0.0039 µg/mL	first compound 0.0078 µg/mL	first compound 0.0156 µg/mL
partner 1.562 µg/mL	0.7	0.637	0.556
partner 3.124 µg/mL	0.633	0.564	0.51
partner 6.248 µg/mL	0.55	0.549	0.45

Conditions	fitness
B. subtilis 168 [3], first compound 0.0625 µg/mL, partner 1.562 µg/mL	0.493
B. subtilis 168 [3], first compound 0.0625 µg/mL, partner 3.124 µg/mL	0.419
B. subtilis 168 [3], first compound 0.0625 µg/mL, partner 6.248 µg/mL	0.208
B. subtilis 168 [3], first compound 0.125 µg/mL, partner 1.562 µg/mL	0.311
B. subtilis 168 [3], first compound 0.125 µg/mL, partner 3.124 µg/mL	0.234
B. subtilis 168 [3], first compound 0.125 µg/mL, partner 6.248 µg/mL	0.129
B. subtilis 168 [3], first compound 0.25 µg/mL, partner 1.562 µg/mL	0.226
B. subtilis 168 [3], first compound 0.25 µg/mL, partner 3.124 µg/mL	0.183
B. subtilis 168 [3], first compound 0.25 µg/mL, partner 6.248 µg/mL	0.095
S. aureus DSM 20231 [4], first compound 0.0312 µg/mL, partner 1.562 µg/mL	0.292
S. aureus DSM 20231 [4], first compound 0.0312 µg/mL, partner 3.124 µg/mL	0.104
S. aureus DSM 20231 [4], first compound 0.0625 µg/mL, partner 0.781 µg/mL	0.122
S. aureus DSM 20231 [4], first compound 0.0625 µg/mL, partner 1.562 µg/mL	0.0594
S. aureus DSM 20231 [4], first compound 0.0625 µg/mL, partner 3.124 µg/mL	0.0236
S. aureus DSM 20231 [4], first compound 0.125 µg/mL, partner 0.781 µg/mL	0.0473
S. aureus DSM 20231 [4], first compound 0.125 µg/mL, partner 1.562 µg/mL	0.048
S. aureus DSM 20231 [4], first compound 0.125 µg/mL, partner 3.124 µg/mL	0.0437
S. aureus Newman [5], first compound 0.0312 µg/mL, partner 0.781 µg/mL	0.322
S. aureus Newman [5], first compound 0.0312 µg/mL, partner 1.562 µg/mL	0.0838
S. aureus Newman [5], first compound 0.0312 µg/mL, partner 3.124 µg/mL	0.0458
S. aureus Newman [5], first compound 0.0625 µg/mL, partner 0.781 µg/mL	0.0719
S. aureus Newman [5], first compound 0.0625 µg/mL, partner 1.562 µg/mL	0.0192
S. aureus Newman [5], first compound 0.0625 µg/mL, partner 3.124 µg/mL	0.0091
S. aureus Newman [5], first compound 0.125 µg/mL, partner 0.781 µg/mL	0.0513
S. aureus Newman [5], first compound 0.125 µg/mL, partner 1.562 µg/mL	0.0428
S. aureus Newman [5], first compound 0.125 µg/mL, partner 3.124 µg/mL	0.0521
S. pneumoniae D39V [2], first compound 0.0125 µg/mL, partner 1.25 µg/mL	0.805
S. pneumoniae D39V [2], first compound 0.0125 µg/mL, partner 2.5 µg/mL	0.752
S. pneumoniae D39V [2], first compound 0.0125 µg/mL, partner 5 µg/mL	0.66
S. pneumoniae D39V [2], first compound 0.015 µg/mL, partner 1.25 µg/mL	0.787
S. pneumoniae D39V [2], first compound 0.015 µg/mL, partner 2.5 µg/mL	0.773
S. pneumoniae D39V [2], first compound 0.015 µg/mL, partner 5 µg/mL	0.736
S. pneumoniae D39V [2], first compound 0.025 µg/mL, partner 1.25 µg/mL	0.539
S. pneumoniae D39V [2], first compound 0.025 µg/mL, partner 2.5 µg/mL	0.497
S. pneumoniae D39V [2], first compound 0.025 µg/mL, partner 5 µg/mL	0.475
S. pneumoniae D39V [2], first compound 0.03 µg/mL, partner 1.25 µg/mL	0.621
S. pneumoniae D39V [2], first compound 0.03 µg/mL, partner 2.5 µg/mL	0.583
S. pneumoniae D39V [2], first compound 0.03 µg/mL, partner 5 µg/mL	0.525
S. pneumoniae D39V [2], first compound 0.05 µg/mL, partner 1.25 µg/mL	0.224
S. pneumoniae D39V [2], first compound 0.05 µg/mL, partner 2.5 µg/mL	0.203
S. pneumoniae D39V [2], first compound 0.05 µg/mL, partner 5 µg/mL	0.207
S. pneumoniae D39V [2], first compound 0.06 µg/mL, partner 1.25 µg/mL	0.368
S. pneumoniae D39V [2], first compound 0.06 µg/mL, partner 2.5 µg/mL	0.355
S. pneumoniae D39V [2], first compound 0.06 µg/mL, partner 5 µg/mL	0.291

Conditions	Bliss interaction score
B. subtilis 168 [6]	0.0321
S. aureus DSM 20231 [7]	-0.075
S. aureus Newman [8]	-0.253
S. pneumoniae D39V [9]	0.11
